Experimental data published in patent US20250163104A1, “MACROCYCLIC IMMUNOMODULATORS” (priority 2021, published 2025).
pIC50: −log10 of the molar value. Where a SMILES comes first, the peptide text is derived from it. Bridges are numbered along the chain shown (N, C = ends). [ ]: non-standard residue; d: D form. The star is where a group is joined. Phe(4-(3-Py)) = N[C@@H](Cc1ccc(-c2cccnc2)cc1)C(=O)O; Phe(3-CF3) = N[C@@H](Cc1cccc(C(F)(F)F)c1)C(=O)O; Ala(morpholin-4-yl) = N[C@@H](CN1CCOCC1)C(=O)O; Phe(4-COOH) = N[C@@H](Cc1ccc(C(=O)O)cc1)C(=O)O; Bip = N[C@@H](Cc1ccc(-c2ccccc2)cc1)C(=O)O; Cha = N[C@@H](CC1CCCCC1)C(=O)O; Carboxymethyl = O=C(O)C*; Orn = NCCC[C@H](N)C(=O)O; Dab = NCC[C@H](N)C(=O)O; Dap = NC[C@H](N)C(=O)O

Each molecule was assayed against T1, human PD-1 / PD-L1-Ig binding on Jurkat cell line over-expressing human PD-1 (Jurkat-PD-1) (Homo sapiens, UniProt Q15116) (assay: Jurkat-PD-1 Cell Binding High-Content Screening Assay (CBA)). Conditions: Jurkat HPD1_PDL1 IC50, Jurkat-PD-1 cells, PE-labeled PD-L1-Ig 20 nM final.
T1 construct: expressed in transfected cells; host or cells: Jurkat
T1 sequence (Q15116 25-288): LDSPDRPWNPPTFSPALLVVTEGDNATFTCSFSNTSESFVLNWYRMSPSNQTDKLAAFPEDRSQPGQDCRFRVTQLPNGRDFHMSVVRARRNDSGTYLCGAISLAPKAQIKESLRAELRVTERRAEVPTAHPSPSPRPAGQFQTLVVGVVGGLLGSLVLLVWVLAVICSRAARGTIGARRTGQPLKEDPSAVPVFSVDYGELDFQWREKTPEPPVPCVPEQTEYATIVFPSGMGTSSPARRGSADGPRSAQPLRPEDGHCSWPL
Format: cell-based
How it was run: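 Read-out: high-content imaging of PE-tagged PD-L1-Ig bound to Jurkat cells overexpressing human PD-1, after fixation with 4% paraformaldehyde and Hoechst 33342 nuclear staining. Ligand was used at 20 nM final for 1 hour, after a 2 h compound exposure at 37° C in serum-containing DMEM.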

Row | Compound | pIC50
1 | CC(C)C[C@@H]1NC(=O)[C@H](Cc2c[nH]c3ccccc23)NC(=O)[C@H](CC(=O)O)NC(=O)[C@H](Cc2ccc(OCC(=O)O)cc2)NC(=O)[C@H](CN)NC(=O)CSC[C@@H](C(=O)NCC(N)=O)NC(=O)[C@H](CO)NC(=O)[C@H](C(C)C)NC(=O)[C@H](CC2CCCCC2)NC(=O)[C@H](CC(N)=O)NC(=O)[C@@H](CC(C)C)NC(=O)[C@H](CN)NC(=O)[C@H](C(C)C)NC(=O)[C@H](Cc2ccc(-c3ccccc3)cc2)NC1=O [Compound 1394] ({CH2CO}-[Dap]Y(Carboxymethyl)DWL[Bip]V[Dap][dL]N[Cha]VSCG-NH2; thioether N-14) | 8.12

Same assay, conditions: Jurkat-PD-1 cells, PE-labeled PD-L1-Ig 20 nM final; read-out: Jurkat HPD1_PDL1 IC50

Row | pIC50 | Compound
2 | 8.82 | CC(C)C[C@H]1NC(=O)[C@H](CCCN)NC(=O)[C@H](Cc2ccc(C(=O)O)cc2)NC(=O)[C@H](Cc2ccc(-c3ccccc3)cc2)NC(=O)[C@H](Cc2ccc(-c3cccnc3)cc2)NC(=O)[C@H](Cc2cccc(C(F)(F)F)c2)NC(=O)[C@H](CC(=O)O)NC(=O)[C@H](Cc2ccc(C(=O)O)cc2)NC(=O)[C@H](CN2CCOCC2)NC(=O)CSC[C@@H](C(=O)N[C@@H](CCN)C(N)=O)NC(=O)[C@H](CCC(=O)O)NC(=O)[C@H](C(C)C)NC(=O)[C@H](CC2CCCCC2)NC(=O)[C@H](CCN)NC1=O [Example 2731] ({CH2CO}-[Ala(morpholin-4-yl)][Phe(4-COOH)]D[Phe(3-CF3)][Phe(4-(3-Py))][Bip][Phe(4-COOH)][Orn][dL][Dab][Cha]VEC[Dab]-NH2; thioether N-14)
3 | 7.61 | CC[C@H](C)[C@@H]1NC(=O)[C@H](Cc2c[nH]c3ccccc23)NC(=O)[C@H](CC(=O)O)NC(=O)[C@H](Cc2ccc(OCC(=O)O)cc2)NC(=O)[C@H](CN)NC(=O)CSC[C@@H](C(=O)N[C@@H](C)C(N)=O)NC(=O)[C@H]([C@@H](C)O)NC(=O)[C@H](C(C)C)NC(=O)[C@H](CC2CCCCC2)NC(=O)[C@H](CCN)NC(=O)[C@@H](CC(C)C)NC(=O)[C@H](CCCN)NC(=O)[C@H]([C@@H](C)CC)NC(=O)[C@H](Cc2ccc(-c3ccccc3)cc2)NC1=O [Compound 1725] ({CH2CO}-[Dap]Y(Carboxymethyl)DWI[Bip]I[Orn][dL][Dab][Cha]VTCA-NH2; thioether N-14)
4 | 7.95 | CC(C)C[C@H]1NC(=O)[C@H](CCCN)NC(=O)[C@H](CCC(=O)O)NC(=O)[C@H](Cc2ccc(-c3ccccc3)cc2)NC(=O)[C@H](C(C)C)NC(=O)[C@H](Cc2cccc(C(F)(F)F)c2)NC(=O)[C@H](CC(=O)O)NC(=O)[C@H](Cc2ccc(OCC(=O)O)cc2)NC(=O)[C@H](Cc2ccncc2)NC(=O)CSC[C@@H](C(=O)N[C@@H](C)C(N)=O)NC(=O)[C@H]([C@@H](C)O)NC(=O)[C@H](C(C)C)NC(=O)[C@H](CC2CCCCC2)NC(=O)[C@H](CCN)NC1=O [Compound 1460]
5 | 6.84 | CC(C)C[C@H]1NC(=O)[C@H](CCCN)NC(=O)[C@H](CCC(=O)O)NC(=O)[C@H](Cc2ccc(-c3ccccc3)cc2)NC(=O)[C@H](C(C)C)NC(=O)[C@H](Cc2c[nH]c3ccccc23)NC(=O)[C@H](CC(=O)O)NC(=O)[C@H](Cc2ccc(OCC(=O)O)cc2)NC(=O)[C@H](CN)NC(=O)CSC[C@@H](C(=O)N[C@@H](C)C(N)=O)NC(=O)[C@H]([C@@H](C)O)NC(=O)[C@H](C(C)C)NC(=O)[C@H](Cc2cc(F)c(F)cc2F)NC(=O)[C@H](CCN)NC1=O [Compound 1477]
6 | 6.99 | CC(C)C[C@@H]1NC(=O)[C@H](Cc2c[nH]c3ccccc23)NC(=O)[C@H](CC(=O)O)NC(=O)[C@H](Cc2ccc(O)cc2)NC(=O)[C@H](Cc2ccccc2)NC(=O)CSC[C@@H](C(=O)N[C@@H](C)C(N)=O)NC(=O)[C@H]([C@@H](C)O)NC(=O)[C@H](C(C)C)NC(=O)[C@H](CC(C)C)NC(=O)[C@H](CCN)NC(=O)[C@@H](C)NC(=O)[C@H](CCN)NC(=O)[C@H](C(C)C)NC(=O)[C@H](Cc2ccc(-c3ccccc3)cc2)NC1=O [Compound 1105] ({CH2CO}-FYDWL[Bip]V[Dab][dA][Dab]LVTCA-NH2; thioether N-14)
